Patent EP4635969A1, “NOVEL GLUCOCORTICOID, METHOD FOR PREPARING SAME, AND USE THEREOF” (Tianjin Pharmaceutical Biotechnology Co., Ltd., priority 2022, dated 2024)
Where two headings read alike, the source gives them in different places.

Columns and labels:
Assay type in all cases: cell-based
[1] = molecular target: T1, mineralocorticoid receptor (MR) (Homo sapiens, UniProt P08235); assay: Assay for agonist activity on mineralocorticoid receptor (luciferase reporter, HEK293 cells transfected with pBIND-MR plasmid); settings: for EC50: EC50 of agonist activity, HEK293 reporter cells, top concentration 50 µM, read-out: Nuclear receptor enzyme activity (nM) MR; for Target selectivity MR/GR: ratio of EC50 values
T1 sequence (P08235 726-984): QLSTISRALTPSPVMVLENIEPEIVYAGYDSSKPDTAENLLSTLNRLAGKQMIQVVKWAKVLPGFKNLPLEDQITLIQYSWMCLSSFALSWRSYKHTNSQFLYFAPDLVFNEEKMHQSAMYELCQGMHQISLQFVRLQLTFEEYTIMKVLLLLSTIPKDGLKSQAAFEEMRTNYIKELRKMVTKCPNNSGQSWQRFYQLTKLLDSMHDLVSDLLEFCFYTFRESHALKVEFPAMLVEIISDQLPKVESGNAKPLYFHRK
Procedure: (§1) Pharmacological Example 2: Assay for Agonist Activity on Mineralocorticoid Receptor (MR) and Progesterone Receptor (PR)
(§2) Test compound stock solutions: The test compounds (compounds 4, 5, 7, 8, 9, 11, 13, 16, 17, 18, 22, 23, 24, 34, 35, 36, 38, 41, 45, 47, 53, 55, and 59) were accurately weighed, dissolved in DMSO to prepare stock solutions at a concentration of 20 mM, and stored at -20 °C.
(§3) The test compounds were subjected to a 4-fold serial dilution starting from an initial concentration of 50 µ M, generating a 12-point concentration gradient with duplicate wells for each concentration. The blank control consisted of 0.1% DMSO.
(§4) The HEK293 stable cell lines […] transfected with mineralocorticoid receptor (MR) and progesterone receptor (PR) (ICE Bioscience, Lot No. TYP-20220819, TPJ-20220812) were cultured in Dulbecco's Modified Eagle Medium (DMEM) supplemented with 10% fetal bovine serum (FBS) and 200 µ g/ml Hygromycin B in a cell incubator containing 5% CO2 at 37 °C. The spent medium was aspirated, and the cells were washed once with phosphate-buffered saline (PBS). Then, 1 mL of TrypLE™ Express solution was added, and the cells were incubated at 37 °C for approximately 2 min. When the cells detached from the bottom of the cell culture dish, approximately 5 mL of pre-warmed complete medium at 37 °C was added. The cell suspension was gently pipetted with a pipette to dissociate clumped cells. The cell suspension was transferred to a sterile centrifuge tube and centrifuged at 1000 rpm for 5 min to pellet the cells for experiments or subculture..
(§5) HEK293 cells were digested and seeded into 6-cm culture dishes. The pBIND-MR and pBIND-PR plasmids were separately transfected into the HEK293 cells using a transfection reagent, resulting in HEK293 cells successfully transfected with the pBIND-MR and pBIND-PR plasmids, respectively. The cells were resuspended in phenol red-free DMEM medium containing 5% charcoal-stripped serum, counted, and then seeded into 96-well plates. The test compounds were added, and the plates were then incubated in an incubator. The luminescence signal values were measured using a multimode microplate reader following the instructions of the luciferase assay kit. The EC50 values of each test compound were calculated using the nonlinear fitting formula with GraphPad Prism 8.0 software.

[2] = molecular target: T2, progesterone receptor (PR) (Homo sapiens, UniProt P06401); assay: Assay for agonist activity on progesterone receptor (luciferase reporter, HEK293 cells transfected with pBIND-PR plasmid); settings: for EC50: EC50 of agonist activity, HEK293 reporter cells, top concentration 50 µM, read-out: Nuclear receptor enzyme activity (nM) PR; for Target selectivity PR/GR: ratio of EC50 values
T2 sequence (P06401 678-933): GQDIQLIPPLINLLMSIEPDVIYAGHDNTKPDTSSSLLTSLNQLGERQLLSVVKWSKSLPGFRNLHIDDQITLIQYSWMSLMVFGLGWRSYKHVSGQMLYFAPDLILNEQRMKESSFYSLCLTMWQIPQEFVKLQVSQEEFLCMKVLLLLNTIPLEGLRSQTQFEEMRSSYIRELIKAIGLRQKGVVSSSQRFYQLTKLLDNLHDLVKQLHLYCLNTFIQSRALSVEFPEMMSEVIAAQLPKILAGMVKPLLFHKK
Procedure: as §1, §2, §3, §4, §5

[3] = molecular target: T3, glucocorticoid receptor (GR) (Homo sapiens, UniProt P04150); assay: Assay for agonist activity on glucocorticoid receptor (luciferase reporter, HEK293 cells transfected with pBIND-GR plasmid)
T3 sequence (P04150 521-777): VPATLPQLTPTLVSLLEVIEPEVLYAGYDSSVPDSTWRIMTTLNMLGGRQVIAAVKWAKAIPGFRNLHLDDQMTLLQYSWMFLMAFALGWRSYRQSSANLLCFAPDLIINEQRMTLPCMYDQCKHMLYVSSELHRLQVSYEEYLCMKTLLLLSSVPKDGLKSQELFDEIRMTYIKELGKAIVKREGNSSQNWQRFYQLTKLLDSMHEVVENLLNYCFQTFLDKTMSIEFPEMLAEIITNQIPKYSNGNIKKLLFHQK
Summary of the method: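 HEK293 cells transfected with pBIND-GR, seeded in phenol red-free DMEM with 5% charcoal-stripped serum, then exposed to compounds in a 10-point, 4-fold dilution series from 10 µM, in duplicate. Luciferase luminescence read after incubation; EC50 from nonlinear fit. Vehicle blank: 0.1% DMSO.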

[4] = EC50 of agonist activity, HEK293 reporter cells, read-out: Nuclear receptor enzyme activity (nM) GR
[5] = HEK293 cells transfected with pBIND-GR, luciferase signal, read-out: GR agonist EC50

| SMILES | EC50 [1] | Target selectivity MR/GR [1] | EC50 [2] | Target selectivity PR/GR [2] | EC50 [3, 4] | EC50 [3, 5] |
| --- | --- | --- | --- | --- | --- | --- |
| C[C@]12C=CC(=O)C=C1[C@@H](F)C[C@H]1[C@@H]3C[C@H]4OC(c5ccc(OCC6CCOC6=O)cc5)O[C@@]4(C(=O)CO)[C@@]3(C)C[C@H](O)[C@@]12F (stereo partly drawn) [Compound 13, (2S,6aS,6bR,7S,8aS,8bS,11aR,12aS,12bS)-2,6b-Difluoro-7-hydroxy-8b-(2-hydroxyacetyl)-6a,8a-dimethyl-10-(4-((2-oxotetrahydrofuran-3-yl)methoxy)phenyl)-1,2,6a,6b,7,8,8a,8b,11a,12,12a,12b-dodecahydro-4H-naphtho[2',1':4,5]indeno[1,2-d][1,3]dioxol-4-one] | > 50000 nM | > 1.4×10^4 | > 50000 nM | > 1.4×10^4 | 3.43 nM | 3.43 nM |
| C[C@]12C=CC(=O)C=C1CC[C@H]1[C@@H]3C[C@H]4OC(c5ccc(SC6CCOC6=O)cc5)O[C@@]4(C(=O)CO)[C@@]3(C)C[C@H](O)[C@@]12F (stereo partly drawn) [Compound 41, (6aS,6bR,7S,8aS,8bS,11aR,12aS,12bS)-6b-Fluoro-7-hydroxy-8b-(2-hydroxyacetyl)-6a,8a-dimethyl-10-(4-((2-oxotetrahydrofuran-3-yl)thio)phenyl)-1,2,6a,6b,7,8,8a,8b,11a,12,12a,12b-dodecahydr o-4H-naphtho[2',1':4,5]indeno[1,2-d][1,3]dioxol-4-one] | > 50000 nM | > 8077 | > 50000 nM | > 8077 | 6.19 nM | 6.19 nM |
| C[C@]12C=CC(=O)C=C1CC[C@H]1[C@@H]3C[C@H]4OC(c5ccc(CS(=O)(=O)C6CCOC6=O)cc5)O[C@@]4(C(=O)CO)[C@@]3(C)C[C@H](O)[C@@]12F (stereo partly drawn) [Compound 59, (6aS,6bR,7S,8aS,8bS,11aR,12aS,12bS)-6b-Fluoro-7-hydroxy-8b-(2-hydroxyacetyl)-6a,8a-dimethyl-10-(4-(((2-oxotetrahydrofuran-3-yl)sulfonyl)methyl)phenyl)-1,2,6a,6b,7,8,8a,8b,11a,12,12a,12b-dodecahydro-4H-naphtho[2',1':4,5]indeno[1,2-d][1,3]dioxol-4-one] | > 50000 nM | > 1.2×10^4 | > 50000 nM | > 1.2×10^4 | 4.01 nM | 4.01 nM |
| C[C@]12C=CC(=O)C=C1CC[C@H]1[C@@H]3C[C@H]4OC(C5CCC(SC6CCOC6=O)CC5)O[C@@]4(C(=O)CO)[C@@]3(C)C[C@H](O)[C@@]12F (stereo partly drawn) [Compound 45, (6aS,6bR,7S,8aS,8bS,11aR,12aS,12bS)-6b-Fluoro-7-hydroxy-8b-(2-hydroxyacetyl)-6a,8a-dimethyl-10-(4-((2-oxotetrahydrofuran-3-yl)thio)cyclohexyl)-1,2,6a,6b,7,8,8a,8b,11a,12,12a,12b-dodeca hydro-4H-naphtho[2',1':4,5]indeno[1,2-d][1,3]dioxol-4-one] | > 50000 nM | > 3.1×10^4 | > 50000 nM | > 3.1×10^4 | 1.62 nM | 1.62 nM |
| C[C@]12C=CC(=O)C=C1[C@@H](F)C[C@H]1[C@@H]3C[C@H]4OC(C5CCN(C(=O)C6COC(=O)C6)CC5)O[C@@]4(C(=O)SCF)[C@@]3(C)C[C@H](O)[C@@]12F (stereo partly drawn) [Compound 4, S-(Fluoromethyl) (2S,6aS,6bR,7S,8aS,8bS,11aR,12aS,12bS)-2,6b-difluoro-7-hydroxy-6a,8a-dimethyl-4-oxo-10-(1-(5-oxotetrahydrofuran-3-carbonyl)piperidin-4-yl)-1,2,4,6a,6b,7,8,8a,11a,12,12a,12b-dodecahydro-8bH-naphtho[2',1':4,5]indeno[1,2-d][1,3]dioxole-8b-carbothioate] | > 50000 nM | > 4223 | > 50000 nM | > 4223 | 11.8 nM | 11.8 nM |
| C[C@]12C=CC(=O)C=C1[C@@H](F)C[C@H]1[C@@H]3C[C@H]4OC(c5ccc(NC(=O)C6COC(=O)C6)cc5)O[C@@]4(C(=O)SCF)[C@@]3(C)C[C@H](O)[C@@]12F (stereo partly drawn) [Compound 5, S-(Fluoromethyl) (2S,6aS,6bR,7S,8aS,8bS,11aR,12aS,12bS)-2,6b-difluoro-7-hydroxy-6a,8a-dimethyl-4-oxo-10-(4-(5-oxotetrahydrofuran-3-carboxamido)phenyl)-1,2,4,6a,6b,7,8,8a,11a,12,12a,12b-dodecahydro-8b H-naphtho[2',1':4,5]indeno[1,2-d][1,3]dioxole-8b-carbothioate] | > 50000 nM | > 9560 | > 50000 nM | > 9560 | 5.23 nM | 5.23 nM |
| C[C@]12C=CC(=O)C=C1CC[C@H]1[C@@H]3C[C@H]4OC(c5ccc(CSC6CCOC6=O)cc5)O[C@@]4(C(=O)CCl)[C@@]3(C)C[C@H](O)[C@@]12Cl (stereo partly drawn) [Compound 38, (6aS,6bR,7S,8aS,8bS,11aR,12aS,12bS)-6b-chloro-8b-(2-chloroacetyl)-7-hydroxy-6a,8a-dimethyl-10-(4-(((2-oxotetrahydrofuran-3-yl)thio)methyl)phenyl)-1,2,6a,6b,7,8,8a,8b,11a,12,12a,12b-dode cahydro-4H-naphtho[2',1':4,5]indeno[1,2-d][1,3]dioxol-4-one] | > 50000 nM | > 4.5×10^5 | > 50000 nM | > 4.5×10^5 | 0.11 nM | 0.11 nM |
| C[C@]12C=CC(=O)C=C1[C@@H](F)C[C@H]1[C@@H]3C[C@H]4OC(c5ccc(C[S+]([O-])C6CCOC6=O)cc5)O[C@@]4(C(=O)CO)[C@@]3(C)C[C@H](O)[C@@]12F (stereo partly drawn) [Compound 55, (2S,6aS,6bR,7S,8aS,8bS,11aR,12aS,12bS)-2,6b-Difluoro-7-hydroxy-8b-(2-hydroxyacetyl)-6a,8a-dimethyl-10-(4-(((2-oxotetrahydrofuran-3-yl)sulfinyl)methyl)phenyl)-1,2,6a,6b,7,8,8a,8b,11a,12,1 2a,12b-dodecahydro-4H-naphtho[2',1':4,5]indeno[1,2-d][1,3]dioxol-4-one] | > 50000 nM | > 3.8×10^4 | > 50000 nM | > 3.8×10^4 | 1.33 nM | 1.33 nM |
| C[C@]12C=CC(=O)C=C1CC[C@H]1[C@@H]3C[C@H]4OC(c5ccc(CNC6CCOC6=O)cc5)O[C@@]4(C(=O)CO)[C@@]3(C)C[C@H](O)[C@@]12F (stereo partly drawn) [Compound 18, (6aS,6bR,7S,8aS,8bS,11aR,12aS,12bS)-6b-Fluoro-7-hydroxy-8b-(2-hydroxyacetyl)-6a,8a-dimethyl-10-(4-(((2-oxotetrahydrofuran-3-yl)amino)methyl)phenyl)-1,2,6a,6b,7,8,8a,8b,11a,12,12a,12b-dodecahydro-4H-naphtho[2',1':4,5]indeno[1,2-d][1,3]dioxol-4-one] | > 50000 nM | > 3.1×10^4 | > 50000 nM | > 3.1×10^4 | 1.62 nM | 1.62 nM |
